Tested on: HCoV 229E
Assay: HCoV 229E cytopathic effect (CPE) assay
Type: cell-based, Human Coronavirus (HCov) 229E
Conditions: CellTiter Glo, read-out: 229 ECPE EC50
Method: Compounds were assayed using standard methods against multiple coronaviral strains, including HCoV 229E and OC43 strains. The antiviral activity of compounds was calculated based on the protection of the virus-induced CPE at each concentration normalized by the virus control.
Cytopathic effect (CPE) was measured by CellTiter Glo following the manufacturer's manual. The antiviral activity of compounds was calculated based on the protection of the virus-induced CPE at each concentration normalized by the virus control.

Compound | EC50 [µM]
COc1cccc2[nH]c(C(=O)N[C@@H](CC(C)C)C(=O)N[C@@H](C[C@@H]3CCNC3=O)C(O)C#N)cc12 (single isomer, unassigned) [135 (Isomer 2)] | < 22
CC(C)C[C@H](NC(=O)c1nc2cccc(Cl)c2[nH]1)C(=O)N[C@H](C#N)C[C@@H]1CCNC1=O [Compound 127] | 2 to 10
CC(C)C[C@H](NC(=O)c1nc2cccc(Cl)c2[nH]1)C(=O)N[C@H](C#N)C[C@@H]1CCNC1=O [Compound 133] | < 22

Same assay, conditions: unidentified human coronavirus, CellTiter Glo, read-out: 229 ECPE EC50

Compound | EC50 [µM]
COc1cccc2[nH]c(C(=O)N[C@@H](CC(C)C)C(=O)N[C@@H](C[C@@H]3CCNC3=O)C(O)C#N)cc12 (single isomer, unassigned) [134 (Isomer 1)] | < 22
COc1cccc2[nH]c(C(=O)N[C@@H](CC(C)C)C(=O)N[C@@H](C[C@@H]3CCNC3=O)C(C#N)NC(C)(C)C)cc12 (single isomer, unassigned) [323 (Isomer 1)] | < 22
COc1cccc2[nH]c(C(=O)N3CC4(CCCCC4)CC3C(=O)N[C@H](C#N)C[C@@H]3CCNC3=O)cc12 (single isomer, unassigned) [389A (Isomer 1)] | < 22
COc1cccc2[nH]c(C(=O)N[C@@H](CC(C)C)C(=O)N[C@@H](C[C@@H]3CCNC3=O)C(C#N)NCc3ccccc3)cc12 (single isomer, unassigned) [507 (Isomer 1.1)] | < 22
CCNC(C#N)[C@H](C[C@@H]1CCNC1=O)NC(=O)[C@H](CC(C)C)NC(=O)c1cc2c(OC)cccc2[nH]1 (single isomer, unassigned) [511 (Isomer 1)] | < 22
COc1cccc2[nH]c(C(=O)N3CC4(CCCCC4)CC3C(=O)N[C@H](C#N)C[C@@H]3CCCNC3=O)cc12 (single isomer, unassigned) [681 (Isomer 1)] | < 22
N#C[C@H](C[C@@H]1CCCNC1=O)NC(=O)C1CC2(CCC2)CN1C(=O)c1cc2cccc(Cl)c2[nH]1 (single isomer, unassigned) [729 (Isomer 1)] | < 22
CC(C)C[C@H](NC(=O)c1nc2ccccc2[nH]1)C(=O)N[C@H](C#N)C[C@@H]1CCNC1=O [Compound 103, N-[(1S)-1-[[(1S)-1-cyano-2-[(3S)-2-oxopyrrolidin-3-yl]ethyl]carbamoyl]-3-methyl-butyl]-1H-benzimidazole-2-carboxamide] | < 22
CC(C)C[C@H](NC(=O)c1nc2ncccc2[nH]1)C(=O)N[C@H](C#N)C[C@@H]1CCNC1=O [Compound 131, N-[(1S)-1-[[(1S)-1-cyano-2-[(3S)-2-oxopyrrolidin-3-yl]ethyl]carbamoyl]-3-methyl-butyl]-1H-imidazo[4,5-b]pyridine-2-carboxamide] | 2 to 10
COc1cccc2[nH]c(C(=O)NC(CC(C)C)C(=O)NC(CC3CCNC3=O)C(O)C#N)cc12 (stereo not drawn) [Compound 134] | < 22
COc1cccc2[nH]c(C(=O)N[C@@H](CC(C)C)C(=O)N[C@H](/C=C/S(C)(=O)=O)C[C@@H]3CCNC3=O)cc12 [Compound 136, 4-methoxy-N-[(1S)-3-methyl-1-[[(E,1S)-3-methylsulfonyl-1-[[(3S)-2-oxopyrrolidin-3-yl]methyl]allyl]carbamoyl]butyl]-1H-indole-2-carboxamide] | > 30
COc1cccc2[nH]c(C(=O)N3C[C@H](c4ccccc4)C[C@H]3C(=O)N[C@H](C#N)C[C@@H]3CCNC3=O)cc12 [Compound 171] | < 22
COc1cccc2[nH]c(C(=O)N[C@@H](CC3CCCCC3)C(=O)N[C@H](C#N)C[C@@H]3CCNC3=O)cc12 [Compound 185, N-[(1S)-2-[[(1S)-1-cyano-2-[(3S)-2-oxopyrrolidin-3-yl]ethyl]amino]-1-(cyclohexylmethyl)-2-oxo-ethyl]-4-methoxy-1H-indole-2-carboxamide] | < 22
COc1cccc2[nH]c(C(=O)N3C[C@H]4C([C@H]3C(=O)N[C@H](C#N)C[C@@H]3CCNC3=O)C4(C)C)cc12 (stereo partly drawn) [Compound 197, (2S,5S)—N-[(1S)-1-cyano-2-[(3S)-2-oxopyrrolidin-3-yl]ethyl]-3-(4-methoxy-1H-indole-2-carbonyl)-6,6-dimethyl-3-azabicyclo[3.1.0]hexane-2-carboxamide] | < 22
COc1cccc2[nH]c(C(=O)N[C@@H](CC3CC3)C(=O)N[C@H](C#N)C[C@@H]3CCNC3=O)cc12 [Compound 205, N—((S)-1-(((S)-1-cyano-2-((S)-2-oxopyrrolidin-3-yl)ethyl)amino)-3-cyclopropyl-1-oxopropan-2-yl)-4-methoxy-1H-indole-2-carboxamide] | < 22
COc1cccc2[nH]c(C(=O)N[C@@H](CC(C)C)C(=O)N[C@@H](C[C@@H]3CCNC3=O)C(C#N)N[C@@H](C)c3ccccc3)cc12 (stereo partly drawn) [Compound 329] | < 22
COc1cccc2[nH]c(C(=O)N3C[C@H](c4ccccc4)CC3C(=O)N[C@H](C=O)C[C@@H]3CCNC3=O)cc12 (stereo partly drawn) [Compound 344A] | < 22
COc1cccc2[nH]c(C(=O)N[C@@H](CC(C)C)C(=O)N[C@@H](C[C@@H]3CCNC3=O)C(N)C#N)cc12 (stereo partly drawn) [Compound 344C, N-[(1S)-1-[[(1S)-2-amino-2-cyano-1-[[(3S)-2-oxopyrrolidin-3-yl]methyl]ethyl]carbamoyl]-3-methyl-butyl]-4-methoxy-1H-indole-2-carboxamide] | < 22
COc1cccc2[nH]c(C(=O)N3C[C@H](c4ccccc4)C[C@H]3C(=O)N[C@@H](C[C@@H]3CCNC3=O)C(O)C#N)cc12 (stereo partly drawn) [Compound 345] | < 22
CC(C)C[C@H](NC(=O)c1cc2c(OC(F)(F)F)cccc2[nH]1)C(=O)N[C@H](C#N)C[C@@H]1CCNC1=O [Compound 361] | < 22

Compound | EC50 [µM]
CC(C)C[C@H](NC(=O)c1nc2c(OC(F)(F)F)cccc2[nH]1)C(=O)N[C@H](C#N)C[C@@H]1CCNC1=O [Compound 363] | < 22
N#C[C@H](C[C@@H]1CCNC1=O)NC(=O)[C@H](CC1CC1)NC(=O)c1cc2c(C3CC3)cccc2[nH]1 [Compound 375A] | < 22
CCOc1cccc2[nH]c(C(=O)N[C@@H](CC(C)C)C(=O)N[C@H](C#N)C[C@@H]3CCNC3=O)cc12 [Compound 377] | < 22
COc1cccc2[nH]c(C(=O)N3C[C@@H]4CCC[C@@H]4[C@H]3C(=O)N[C@H](C#N)C[C@@H]3CCNC3=O)cc12 [Compound 393] | < 22
COc1cccc2[nH]c(C(=O)N3CC4(CC4)C[C@H]3C(=O)N[C@H](C#N)C[C@@H]3CCNC3=O)cc12 [Compound 397] | < 22
COc1cccc2[nH]c(C(=O)N3CC4(CCCC4)C[C@H]3C(=O)N[C@H](C#N)C[C@@H]3CCNC3=O)cc12 [Compound 401, (S)—N—((S)-1-cyano-2-((S)-2-oxopyrrolidin-3-yl)ethyl)-2-(4-methoxy-1H-indole-2-carbonyl)-2-azaspiro[4.4]nonane-3-carboxamide] | < 22
COc1cccc2[nH]c(C(=O)N[C@@H](CC(C)(C)C)C(=O)N[C@H](C#N)C[C@@H]3CCNC3=O)cc12 [Compound 405, N-[(1S)-1-[[(1S)-1-cyano-2-[(3S)-2-oxopyrrolidin-3-yl]ethyl]carbamoyl]-3,3-dimethyl-butyl]-4-methoxy-1H-indole-2-carboxamide] | < 22
COc1cccc2[nH]c(C(=O)N[C@@H](CC(C)C)C(=O)NC(C#N)c3cccnc3)cc12 (stereo partly drawn) [Compound 433] | 2 to 10
COc1cccc2[nH]c(C(=O)N[C@@H](CC3CC3)C(=O)N[C@H](C#N)C[C@@H]3CCCNC3=O)cc12 [Compound 491, N-[(1S)-2-[[(1S)-1-cyano-2-[(3S)-2-oxo-3-piperidyl]ethyl]amino]-1-(cyclopropylmethyl)-2-oxo-ethyl]-4-methoxy-1H-indole-2-carboxamide] | < 22
CCNC(C#N)[C@H](C[C@@H]1CCNC1=O)NC(=O)[C@H](CC(C)C)NC(=O)c1cc2c(OC)cccc2[nH]1 (stereo partly drawn) [Compound 511, N-[(1S)-1-[[(1S)-2-cyano-2-(ethylamino)-1-[[(3S)-2-oxopyrrolidin-3-yl]methyl]ethyl]carbamoyl]-3-methyl-butyl]-4-methoxy-1H-indole-2-carboxamide] | < 22
COc1cccc2[nH]c(C(=O)N3C[C@H](SC)C[C@H]3C(=O)N[C@H](C#N)C[C@@H]3CCNC3=O)cc12 [Compound 551] | 2 to 10
N#C[C@H](C[C@@H]1CCCNC1=O)NC(=O)[C@H](CC1CC1)NC(=O)c1cc2ccc(Cl)cc2[nH]1 [Compound 635, 6-Chloro-N-[(1S)-2-[[(1S)-1-cyano-2-[(3S)-2-oxo-3-piperidyl]ethyl]amino]-1-(cyclopropylmethyl)-2-oxo-ethyl]-1H-indole-2-carboxamide] | < 22
N#C[C@H](C[C@@H]1CCCNC1=O)NC(=O)[C@H](CC1CC1)NC(=O)c1nc2c(Cl)ccc(Cl)c2[nH]1 [Compound 637, 4,7-dichloro-N-[(1S)-2-[[(1S)-1-cyano-2-[(3S)-2-oxo-3-piperidyl]ethyl]amino]-1-(cyclopropylmethyl)-2-oxo-ethyl]-1H-benzimidazole-2-carboxamide] | < 22
N#C[C@H](C[C@@H]1CCNC1=O)NC(=O)[C@H](CC1CC1)NC(=O)c1cc2c([nH]1)CCCC2 [Compound 711] | < 22
N#C[C@H](C[C@@H]1CCCNC1=O)NC(=O)[C@H](CC1CC1)NC(=O)c1cc2c(Cl)nccc2[nH]1 [Compound 715] | < 22
N#C[C@H](C[C@@H]1CCCNC1=O)NC(=O)[C@H](CC1CC1)NC(=O)c1cc2cc(Cl)ncc2[nH]1 [Compound 717] | < 22
CC(C)(C)C[C@H](NC(=O)c1cc2cccc(Cl)c2[nH]1)C(=O)N[C@H](C#N)C[C@@H]1CCCNC1=O [Compound 721, 7-chloro-N—((S)-1-(((S)-1-cyano-2-((S)-2-oxopiperidin-3-yl)ethyl)amino)-4,4-dimethyl-1-oxopentan-2-yl)-1H-indole-2-carboxamide] | < 22
CC(C)(C)C[C@H](NC(=O)c1cc2ccc(Cl)c(Cl)c2[nH]1)C(=O)N[C@H](C#N)C[C@@H]1CCCNC1=O [Compound 725] | < 22
CC(C)(C)C[C@H](NC(=O)c1cc2c(Cl)ccc(Cl)c2[nH]1)C(=O)N[C@H](C#N)C[C@@H]1CCCNC1=O [Compound 735] | < 22
